According to patent US10294234B2, “HIV inhibitor compounds” (priority 2017, dated 2019):
Where two headings read alike, the source gives them in different places.

Tests used:
[1] = test system: HIV-1 (IIIB) in MT-4 cells; assay: MT-4 HIV assay; format: cell-based
Summary of the method: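 Antiviral activity was read by Cell Titer Glo after a 5-day, 37 °C culture of MT-4 cells pre-infected with a 1:250 dilution of HIV-1 (IIIB). Compounds were tested as threefold dilution series in complete RPMI. Controls were no drug, mock infection and 5 uM AZT.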

[2] = Summary of the method: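 Each compound (1 uM) is incubated in duplicate with 0.5 mg/mL liver microsomal protein from dog, rat or human plus NADPH-regenerating system. Samples taken at 2, 12, 25, 45 and 65 minutes are deproteinised and quantified by LC/MS/MS. Half-life gives Clint.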
[3] = Human immunodeficiency virus 1, MT4, 120 h
[4] = human liver microsomes 0.5 mg/mL, 1 uM compound, NADPH
[5] = rat liver microsomes 0.5 mg/mL, 1 uM compound, NADPH
[6] = Human immunodeficiency virus 1, MT4, 120 h, HIV-1 (IIIB), MT-4 cells, 5 days, Cell Titer Glo, read-out: EC50

Compound | EC50 [1, 3] [nM] | Human Pred Cl. [2, 4] [L/H/kg] | Rat. Pred. Cl. [2, 5] [L/H/kg] | EC50 [1, 6] [nM] | Human Pred Cl. ([2]; human, microsomes) [L/H/kg] | Rat. Pred. Cl. ([2]; rat, microsomes) [L/H/kg] | EC50 ([1]; HIV-1 (IIIB), MT-4 cells, 5 days, Cell Titer Glo, read-out: EC50) [nM]
COC(=O)N[C@H](C(=O)N[C@@H](Cc1ccc(C#Cc2cnc(N3CCNC(=O)C3)nc2)cc1)[C@@H](O)CN(Cc1c(F)cc(-c2ccn(C(F)F)n2)cc1F)NC(=O)[C@@H](NC(=O)OC)C(C)(C)C(F)(F)F)C(C)(C)C(F)(F)F [Example 123, Methyl ((5S,8S,9S,14S)-11-(4-(1-(difluoromethyl)-1H-pyrazol-3-yl)-2,6-difluorobenzyl)-16,16,16-trifluoro-9-hydroxy-15,15-dimethyl-3,6,3-trioxo-8-(4-((2 (3-oxopiperazin-1-yl)pyrimidin-5-yl)ethynyl)benzyl)-5-(1,1,1-trifluoro-2-methylpropan-2-yl)-2-oxa-4,7,11,12-tetraazahexadecan-14-yl)carbamate] | 4.16 | <0.11 | <0.18 |  |  |  | 
COC(=O)N[C@H](C(=O)N[C@@H](Cc1ccc(C#Cc2ccc(N3CC4CC(C3)N4C3COC3)nc2)cc1)[C@@H](O)CN(Cc1c(F)cc(-c2cnn(C(F)F)c2)cc1F)NC(=O)[C@@H](NC(=O)OC)C(C)(C)C(F)(F)F)C(C)(C)C(F)(F)F [Example 60, Methyl ((5S,8S,9S,14S)-11-(4-(1-(difluoromethyl)-1H-pyrazol-4-yl)-2,6-difluorobenzyl)-16,16,16-trifluoro-9-hydroxy-15,15-dimethyl-8-(4-((6-(6-(oxetan-3-yl)-3,6-diazabicyclo[3.1.1]heptan-3-yl)pyridin-3-yl)ethynyl)benzyl)-3,6,13-trioxo-5-(1,1,1-trifluoro-2-methylpropan-2-yl)-2-oxa-4,7,11,12-tetraazahexadecan-14-yl)carbamate] |  |  |  | 3.42 | 0.12 | 0.65 | 
COC(=O)N[C@H](C(=O)N[C@@H](Cc1ccc(C#Cc2ccc(N3CC4CCC(C3)N4C3COC3)nc2)cc1)[C@@H](O)CN(Cc1c(F)cc(-c2ccc(C)cn2)cc1F)NC(=O)[C@@H](NC(=O)OC)C(C)(C)C(F)(F)F)C(C)(C)C(F)(F)F [Example 229, Methyl ((5S,8S,9S,14S)-11-(2,6-difluoro-4-(5-methylpyridin-2-yl)benzyl)-16,16,16-trifluoro-9-hydroxy-15,15-dimethyl-8-(4-((6-(8-(oxetan-3-yl)-3,8-diazabicyclo [3.2.1]octan-3-yl)pyridin-3-yl)ethynyl)benzyl)-3,6,13-trioxo-5-(1,1,1-trifluoro-2-methylpropan-2-yl)-2-oxa-4,7,11,12-tetraazahexadecan-14-yl)carbamate] |  |  |  | 7.86 | <0.11 | 0.26 | 
COC(=O)N[C@H](C(=O)N[C@@H](Cc1ccc(C#Cc2ccc(N3CC4CCC(C3)N4C3COC3)nc2)cc1)[C@@H](O)CN(Cc1c(F)cc(-c2ccn(C(F)F)n2)cc1F)NC(=O)[C@@H](NC(=O)OC1COC1)C(C)(C)C)C(C)(C)C(F)(F)F [Example 184, methyl ((2S)-1-(((2S,3S)-4-(1-(4-(1-(difluoromethyl)-1H-pyrazol-3-yl)-2,6-difluorobenzyl)-2-((S)-3,3-dimethyl-2-(((oxetan-3-yloxy)carbonyl)amino)butanoyl)hydrazinyl)-3-hydroxy-1-(4-((6-(8-(oxetan-3-yl)-3,8-diazabicyclo[3.2.1]octan-3-yl)pyridin-3-yl)ethynyl)phenyl)butan-2-yl)amino)-4,4,4-trifluoro-3,3-dimethyl-1-oxobutan-2-yl)carbamate] |  |  |  | 3.66 | <0.11 | <0.18 | 
COC(=O)N[C@H](C(=O)N[C@@H](Cc1ccc(-c2ccc(N3CC4CCC(C3)N4C3COC3)nc2)cc1)[C@@H](O)CN(Cc1c(F)cc(-c2ccn(C3CC3)n2)cc1F)NC(=O)[C@@H](NC(=O)OC)C(C)(C)C(F)(F)F)C(C)(C)C(F)(F)F [Example 204, Methyl ((5S,8S,9S,14S)-11-(4-(1-cyclopropyl-1H-pyrazol-3-yl)-2,6-difluorobenzyl)-16,16,16-trifluoro-9-hydroxy-15,15-dimethyl-8-(4-(6-(8-(oxetan-3-yl)-3,8-diazabicyclo[3.2.1]octan-3-yl)pyridin-3-yl)benzyl)-3,6,13-trioxo-5-(1,1,1-trifluoro-2-methylpropan-2-yl)-2-oxa-4,7,11,12-tetraazahexadecan-14-yl)carbamate] |  |  |  | 3.18 | 0.19 | 0.48 | 
COC(=O)N[C@H](C(=O)N[C@@H](Cc1ccc(C#Cc2ccc(N3CCN(C4COC4)CC3)nc2)cc1)[C@@H](O)CN(Cc1c(F)cc(-c2cc(F)ccn2)cc1F)NC(=O)[C@@H](NC(=O)OC)C(C)(C)C(F)(F)F)C(C)(C)C(F)(F)F [Example 98, Methyl ((5S,8S,9S,14S)-11-(2,6-difluoro-4-(4-fluoropyridin-2-yl)benzyl)-16,16,16-trifluoro-9-hydroxy-15,15-dimethyl-8-(4-((6-(4-(oxetan-3-yl)piperazin-1-yl)pyridin-3-yl)ethynyl)benzyl)-3,6,13-trioxo-5-(1,1,1-trifluoro-2-methylpropan-2-yl)-2-oxa-4,7,11,12-tetraazahexadecan-14-yl)carbamate] |  | 0.26 | 0.65 | 4.97 |  |  | 
COC(=O)N[C@H](C(=O)NN(Cc1ccc(-c2ccn(C(F)F)n2)cc1)C[C@H](O)[C@H](Cc1ccc(C#Cc2ccc(N3CC4CCC(C3)N4C3COC3)nc2)cc1)NC(=O)[C@@H](NC(=O)OC)C(C)(C)C(F)(F)F)C(C)(C)C [Example 85, Methyl ((5S,8S,9S,14S)-11-(4-(1-(difluoromethyl)-1H-pyrazol-3-yl)benzyl)-9-hydroxy-15,15-dimethyl-8-(4-((6-(8-(oxetan-3-yl)-3,8-diazabicyclo[3.2.1]octan-3-yl)pyridin-3-yl)ethynyl)benzyl)-3,6,13-trioxo-5-(1,1,1-trifluoro-2-methylpropan-2-yl)-2-oxa-4,7,11,12-tetraazahexadecan-14-yl)carbamate] |  |  |  | 3.78 | 0.13 | 0.19 | 
COC(=O)N[C@H](C(=O)N[C@@H](Cc1ccc(C#Cc2ccc(N3CC4(C3)CN(C3COC3)C4)nc2)cc1)[C@@H](O)CN(Cc1c(F)cc(-c2ccn(C(F)F)n2)cc1F)NC(=O)[C@@H](NC(=O)OC)C(C)(C)C(F)(F)F)C(C)(C)C(F)(F)F [Example 163, Methyl ((5S,8S,9S,14S)-11-(4-(1-(difluoromethyl)-1H-pyrazol-3-yl)-2,6-difluorobenzyl)-16,16,16-trifluoro-9-hydroxy-15,15-dimethyl-8-(4-((6-(6-(oxetan-3-yl)-2,6-diazaspiro[3.3]heptan-2-yl)pyridin-3-yl)ethynyl)benzyl)-3,6,13-trioxo-5-(1,1,1-trifluoro-2-methylpropan-2-yl)-2-oxa-4,7,11,12-tetraazahexadecan-14-yl)carbamate] | 2.32 | <0.11 |  |  |  |  | 
Methyl ((5S,8S,9S,14S)-8-(4-((6-(3,8-diaza bicyclo[3.2.1]octan-3-yl)pyridin-3-yl)ethynyl)benzyl)-1-(4-(1-(difluoromethyl)-1H-pyrazol-3-yl)-2,6-difluorobenzyl)-16,16,16-trifluoro-9-hydroxy-15,15-dimethyl-3,6,13-trioxo-5-(1,1,1-trifluoro-2-methylpropan-2-yl)-2-oxa-4,7,11,12-tetraazahexadecan-14-yl)carbamate 2,2,2-trifluoroacetate [Example 161] |  | <0.11 |  |  |  |  | 14
